The record followed here is patent US10851069B2, “Compositions of crystallized hydrophobic compounds and methods of making and using same” (Massachusetts Institute of Technology, priority 2016, dated 2020).

The subject of data set [1] is inflammatory macrophage markers Sphk1, TNFα, Arg1, IL1. The data set can be described thus: NanoString multiplexed gene expression analysis of retrieved capsules. In kind it is in vivo, C57BL/6 mice. The settings on record: amorphous drug-loaded capsules, 2 weeks IP; CSF1R-targeting agents compared. The procedure: RNAs for mock-implanted (mock) controls, or for various drug-loaded 0.5 mm diameter alginate sphere-bearing mice (n=4/group) were isolated from tissue samples taken at various time points after implantation, as described. Respective RNAs were quantified, diluted to the appropriate concentration (100 ng/μl), and then 500 ng of each sample was processed according to NanoString manufacturer protocols for expression analysis via our customized multiplexed gene mouse macrophage subtyping panel. RNA levels (absolute copy numbers) were obtained following nCounter (NanoString Technologies Inc., Seattle, Wash.) quantification, and group samples were analyzed using nSolver analysis software (NanoString Technologies Inc., Seattle, Wash.).

In another data set the test system is C57BL/6 mice. The experiment in a line: Naked (non-encapsulated) drug crystals injected IP with 500 μm alginate spheres, 2 weeks. The class given is in vivo. The procedure: Naked crystals of GW2580 or saline-only (no drug control) were delivered intraperitoneally along with 500 μm alginate spheres for 2 weeks to C57BL/6 mice. […] Brightfield and fluorescence imaging was used to emphasize the respective presence or lack of fibrotic overgrowth on retrieved alginate spheres from either saline (control) or crystalline GW2580 treatment groups (FIG. 17C). […] GW2580 crystal testing (at doses of 0.5 and 5 mg/SC site) was also extended into the SC implant space with other immunogenic materials, ceramic glass (GL) and polymer polystyrene (PS). […] All animal protocols were approved by the MIT Committee on Animal Care, and all surgical procedures and post-operative care was supervised by MIT Division of Comparative Medicine veterinary staff. Immune-competent male non-diabetic or STZ-induced diabetic C57BL/6 mice (Jackson Laboratory, Bar Harbor, Me.) were anesthetized with 3% isoflurane in oxygen and had their abdomens shaved and sterilized using betadine and isopropanol. Preoperatively, all mice also received a 0.05 mg/kg dose of buprenorphine subcutaneously as a pre-surgical analgesic, along with 0.3 mL of 0.9% saline subcutaneously to prevent dehydration. A […] incision was made along the midline of the abdomen and the peritoneal lining was exposed using blunt dissection. The peritoneal wall was then grasped with forceps and a 0.5-1 mm incision was made along the linea alba. A desired volume of spheres (all materials without islets, as well as SLG20 spheres encapsulating rat islets) were then loaded into a sterile pipette and implanted into the peritoneal cavity through the incision. The incision was then closed using 5-0 taper-tipped polydioxanone (PDS II) absorbable sutures. The skin was then closed over the incision using a wound clip and tissue glue. At desired time points post-implantation or transplantation (with encapsulated islets), as specified in figures, mice were euthanized by CO2 administration, followed by cervical dislocation. In certain instances, 5 ml of ice cold PBS was first injected in order perform an intraperitoneal lavage to rinse out and collect free-floating intraperitoneal immune cells. An incision was then made using the forceps and scissors along the abdomen skin and peritoneal wall, and intraperitoneal lavage volumes were pipetted out into fresh 15 ml falcon tubes (each prepared with 5 ml of RPMI cell culture media). Next, a wash bottle tip was inserted into the abdominal cavity. KREBS buffer was then used to wash out all material spheres from the abdomen and into petri dishes for collection. After ensuring all the spheres were washed out or manually retrieved (if fibrosed directly to intraperitoneal tissues), they were transferred into 50 mL conical tubes for downstream processing and imaging. After intraperitoneal lavage and sphere retrieval, remaining fibrosed intraperitoneal tissues were also excised for downstream FACS and expression analyses. Single-cell suspensions of freshly excised tissues were prepared using a gentle MACS Dissociator (Miltenyi Biotec, Auburn, Calif.) according to the manufacturer's protocol. Single-cell suspensions were prepared in a passive PEB dissociation buffer (1×PBS, pH 7.2, 0.5% BSA, and 2 mM EDTA) and suspensions were passed through 70 μm filters (Cat. #22363548, Fisher Scientific, Pittsburgh, Pa.). This process removed the majority of cells adhered to the surface (>90%). […]

A short description of data set [2]: Drug extraction (HPLC) of retrieved capsules, remaining loaded drug. The class given is in vivo, C57BL/6 mice. As to conditions: crystalline, co-encapsulated with islets, after 460 days compared to 6 months (180 days). The procedure: Calibration curves were obtained on an Agilent LC 1100 Series (Agilent Technologies, CA, USA) equipped with binary pump ([…] Å), auto-sampler (G1313 Å), degasser and photodiode detector (DAD, […] Å). Chemstation was used for system control, data processing and data acquisition for LC. Chromatographic separation was achieved by an analytical Waters Atlantis T3 C18 column (5 μm, 4.6×250 mm). The temperature of column and auto-sampler were kept at 20° C. Stock solution of GW2580 was prepared in dimethyl sulfoxide (DMSO) at a target concentration of 10 mg/ml and appropriate dilutions were made in DMSO to prepare standards (0.25-2500 μg/ml) for calibration curve of GW2580. 10 μl of standard solution was injected and the analytes were eluted by gradient mode using (A) acetonitrile and (B) 0.1% formic acid in water at a constant flow rate of 1 ml/min. The gradient conditions of mobile phase were as follows: 0 min 10% A, 10 min 95% A, 14 min 95% A, 16 min 10% A, 20 min 10% A. Stock solution of curcumin was prepared in dimethyl sulfoxide (DMSO) at a target concentration of 10 mg/ml and appropriate dilutions were made in DMSO to prepare standards (0.05-500 μg/ml) for calibration curve of curcumin. 10 μl of standard solution was injected and the analytes were eluted by gradient mode using (A) acetonitrile and (B) 0.1% formic acid in water at a constant flow rate of 1 ml/min. […]

Take `COc1ccc(COc2ccc(Cc3cnc(N)nc3N)cc2OC)cc1` [GW2580, 5-[[3-Methoxy-4-[(4-methoxyphenyl)methoxy]phenyl]methyl]-2,4-pyrimidinediamine]: the gene expression responses result in data set [1] was “almost identical gene expression responses”. Further, in the data set on C57BL/6 mice (2 weeks after implantation, 1 week since last crystal injection), the “crystals in IP lavage liquid (differential interference contrast imaging)” value is “many crystals remained within the IP space”. Moreover, the “fibrosis of retrieved alginate microspheres (phase contrast)” value in the data set on C57BL/6 mice (daily amorphous drug, 3 mg/day, total 45 mg over 2 weeks) is given as “fibrosis-free”; in the data set with C57BL/6 mice (naked drug crystals, 4.5 mg once per week, 9 mg total), “fibrosis-free”; in the data set on C57BL/6 mice (weekly amorphous drug) it was “not effective”. Moreover, the “macrophage levels on microspheres (FACS)” value in the data set on C57BL/6 mice (naked crystals, 2 weeks) was “significant reductions in macrophage levels”. Also, the “drug remaining in retrieved capsules” value in data set [2] is reported as “significantly larger amount”.
